The source made the active and inactive calls. The calls are words filed in the database; no cut-off is given here.

This note sets out measurements from ChEMBL document CHEMBL1151469, “Cytotoxic activity of N-chlorotaurine on Acanthamoeba spp” (Antimicrob Agents Chemother, 2008).

In this assay the test system is Acanthamoeba polyphaga. Description: Amoebicidal activity against Trophozoites of Acanthamoeba polyphaga 5SU assessed as log reduction in cell count at 10 mM in phosphate buffered saline at pH 5 after 6 hrs by hemocytometer using trypan blue stain. In kind it is functional, organism-based.

Consider `O=S(=O)(O)CCNCl`, for which the outcome was Active.
